According to ChEMBL document CHEMBL6182921, “Structural Optimization of Next-Generation TRK Inhibitors against Acquired Drug Resistance Mutations for the Treatment of Solid Tumors” (J Med Chem, 2025):

Columns and labels:
BaF3 [1] = test: Antiproliferative activity against mouse BaF3 cells harbouring MPRIP-TRKA G595R mutant assessed as inhibition of cell growth measured after 72 hrs by CCK-8 method; type: functional, cell-based; conditions: BaF3, 72 h
[2] = target: High affinity nerve growth factor receptor (Homo sapiens, UniProt P04629)
Description: Inhibition of TRKA (unknown origin) incubated for 1 hr in presence of ATP by ELISA method

BaF3 [3] = test: cells; conditions: Mus musculus, BaF3, 72 h
Description: Antiproliferative activity against mouse BaF3 cells harbouring MPRIP-TRKA G667C mutant assessed as inhibition of cell growth measured after 72 hrs by CCK-8 method

BaF3 [4] = test: Antiproliferative activity against mouse BaF3 cells harbouring MPRIP-TRKA G595R mutant assessed as inhibition of cell growth at 1000 nmol/L measured after 72 hrs by CCK-8 method relative to control; type: functional
BaF3 [5] = test: cells; conditions: Mus musculus, BaF3, 72 h; remark: listed apart in the source
Description: Antiproliferative activity against mouse BaF3 cells harbouring xDFG (TRKA-G667C) mutation measured after 72 hrs by Cell-titer glo assay

BaF3 [6] = type: functional, cell-based; conditions: Mus musculus

Sequence of High affinity nerve growth factor receptor (P04629 whole entry): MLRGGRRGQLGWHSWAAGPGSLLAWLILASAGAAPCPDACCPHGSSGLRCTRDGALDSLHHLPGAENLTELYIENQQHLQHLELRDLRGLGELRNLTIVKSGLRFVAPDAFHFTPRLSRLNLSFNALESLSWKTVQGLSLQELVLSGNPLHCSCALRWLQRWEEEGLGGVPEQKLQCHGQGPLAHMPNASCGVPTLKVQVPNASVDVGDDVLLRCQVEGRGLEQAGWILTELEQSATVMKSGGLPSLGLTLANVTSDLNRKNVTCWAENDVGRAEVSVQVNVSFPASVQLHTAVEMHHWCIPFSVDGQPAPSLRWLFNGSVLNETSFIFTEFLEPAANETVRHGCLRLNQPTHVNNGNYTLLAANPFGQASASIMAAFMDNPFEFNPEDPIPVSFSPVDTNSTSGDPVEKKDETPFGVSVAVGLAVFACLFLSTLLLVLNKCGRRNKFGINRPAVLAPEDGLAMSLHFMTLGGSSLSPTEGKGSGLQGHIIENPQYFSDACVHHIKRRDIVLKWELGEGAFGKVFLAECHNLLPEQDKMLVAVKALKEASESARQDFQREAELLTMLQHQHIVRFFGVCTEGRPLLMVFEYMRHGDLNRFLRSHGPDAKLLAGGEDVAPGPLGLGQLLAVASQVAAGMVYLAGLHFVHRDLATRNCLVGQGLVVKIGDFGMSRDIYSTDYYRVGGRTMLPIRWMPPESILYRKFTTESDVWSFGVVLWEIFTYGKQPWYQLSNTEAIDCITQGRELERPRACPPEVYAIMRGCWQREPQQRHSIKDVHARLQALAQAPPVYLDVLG

Row | IC50 (BaF3 [1]) [nM] | IC50 (BaF3 [3]) [nM] | IC50 (BaF3 [5]) [nM] | SMILES | further results
1 | > 1000 | 112 | – | CC1CN(Cc2ccc(NC(=O)c3cc(N4CCC[C@@H]4c4cc(F)ccc4F)c[nH]c3=O)cc2)CCN1S(=O)(=O)N1CCOCC1 (stereo not given in full) | IC50 [2]: 1.6 nM
2 | – | 184 | – | CCCN(CCC)Cc1ccc(NC(=O)c2cc(N3CCC[C@@H]3c3cc(F)ccc3F)c[nH]c2=O)cc1 | inhibition at 1 µM (BaF3 [4]): 45.2%
3 | – | – | 15 | C[C@H]1CNC(=O)c2cnn3ccc(nc23)N[C@H](C)c2cc(F)ccc2O1 [REPOTRECTINIB] | –
4 | 37.9 | 171 | 124 | C[C@@H]1CCc2ncc(F)cc2[C@H]2CCCN2c2ccn3ncc(c3n2)C(=O)N1 [SELITRECTINIB] | –
5 | – | – | – | C[C@@H](N)COc1ccc(-c2cnc3ccc(N[C@H](C)c4cccc(F)c4)nn23)cc1 [TALETRECTINIB] | IC50 (BaF3 [6]): 304 nM
